Test results from patent US20240246908A1 (ORION CORPORATION, priority 2021, published 2024).

System: YAP-TEAD
Test: TEAD inhibition, Hippo Pathway TEAD Reporter MCF-7 luciferase assay
Assay type: cell-based
Conditions: Homo sapiens, MCF7, 24 h, Hippo Pathway TEAD Reporter MCF-7 cells, luciferase activity after 24 h; read-out: IC50 of the test compounds on YAP-TEAD inhibition (Group)
Method in brief: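 IC50 derived from ONE-Glo luciferase luminescence after 24 h compound exposure (11 concentrations in quadruplicate, 0.1% DMSO control). Reporter: MCF-7 line expressing firefly luciferase under TEAD elements, constitutively activated by nuclear YAP1.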

| IC50 [µM] | Structure (SMILES) |
| --- | --- |
| < 0.05 | COc1ccc(Oc2ccc(C(F)(F)F)cn2)cc1NC(=O)[C@@H]1CCC(=O)N1C1CC1 [Compound 129, (S)-1-Cyclopropyl-N-(2-methoxy-5-((5-(trifluoromethyl)pyridin-2-yl)oxy)-phenyl)-5-oxopyrrolidine-2-carboxamide] |
| < 0.05 | COc1ccc(Oc2ccc(C(F)(F)F)cn2)cc1NC(=O)[C@@H]1CNC(=O)N1C [Compound 130, (S)—N-(2-Methoxy-5-((5-(trifluoromethyl)pyridin-2-yl)oxy)phenyl)-3-methyl-2-oxoimidazolidine-4-carboxamide] |
| < 0.05 | COc1ccc(Oc2ccc(C(F)(F)F)cn2)cc1NC(=O)C1CNC(=O)N1C1CC1 (stereo not drawn) [Compound 131, 3-Cyclopropyl-N-(2-methoxy-5-((5-(trifluoromethyl)pyridin-2-yl)oxy)phenyl)-2-oxoimidazolidine-4-carboxamide] |
| < 0.05 | COc1ccc(Oc2ccc(C(F)(F)F)cc2)cc1NC(=O)[C@@]1(C)CCC(=O)N1C [Compound 134, (R)—N-(2-methoxy-5-(4-(trifluoromethyl)phenoxy)phenyl)-1,2-dimethyl-5-oxopyrrolidine-2-carboxamide] |
| 0.05 to 0.3 | COc1ccc(Oc2ccc(C(F)(F)F)cc2)cc1NC(=O)[C@]1(C)CCC(=O)N1C [Compound 135, (S)—N-(2-Methoxy-5-(4-(trifluoromethyl)phenoxy)phenyl)-1,2-dimethyl-5-oxo-pyrrolidine-2-carboxamide] |
| < 0.05 | COc1ccc(Oc2ccc(C(F)(F)F)cc2)cc1NC(=O)C1CCC(=O)N1CC(N)=O (stereo not drawn) [Compound 136, 1-(2-Amino-2-oxoethyl)-N-(2-methoxy-5-(4-(trifluoromethyl)phenoxy)phenyl)-5-oxopyrrolidine-2-carboxamide] |
| 0.301 to 2 | COc1ccc(Oc2ccc(C(F)(F)F)cc2)cc1NC(=O)C1CCC(=O)N1c1cnn(C)c1 (stereo not drawn) [Compound 137, N-(2-Methoxy-5-(4-(trifluoromethyl)phenoxy)phenyl)-1-(1-methyl-1H-pyrazol-4-yl)-5-oxopyrrolidine-2-carboxamide] |
| 0.05 to 0.3 | COc1ccc(Oc2ccc(C(F)(F)F)cc2)cc1NC(=O)C1CCC(=O)N1C1CCOC1 (stereo not drawn) [Compound 138, N-(2-Methoxy-5-(4-(trifluoromethyl)phenoxy)phenyl)-5-oxo-1-(tetrahydrofuran-3-yl)pyrrolidine-2-carboxamide] |
| < 0.05 | COc1ccc(Oc2ccc(C(F)(F)F)cc2)cc1NC(=O)C1CN(C)C(=O)N1C (stereo not drawn) [Compound 139, N-(2-Methoxy-5-(4-(trifluoromethyl)phenoxy)phenyl)-1,3-dimethyl-2-oxo-imidazolidine-4-carboxamide] |
| 0.05 to 0.3 | COc1ccc(Oc2ccc(C(F)(F)F)cc2)cc1NC(=O)[C@H]1CNC(=O)N1C [Compound 140, (R)—N-(2-Methoxy-5-(4-(trifluoromethyl)phenoxy)phenyl)-3-methyl-2-oxo-imidazolidine-4-carboxamide] |
| < 0.05 | COc1ccc(Oc2ccc(C(F)(F)F)cc2)cc1NC(=O)[C@@H]1CNC(=O)N1C [Compound 141, (S)—N-(2-Methoxy-5-(4-(trifluoromethyl)phenoxy)phenyl)-3-methyl-2-oxoimidazolidine-4-carboxamide] |
| 0.301 to 2 | COc1ccc(Oc2ccc(C(F)(F)F)cc2)cc1NC(=O)C1CN(C)C(=O)N1C(C)=O (stereo not drawn) [Compound 142, 3-Acetyl-N-(2-methoxy-5-(4-(trifluoromethyl)phenoxy)phenyl)-1-methyl-2-oxoimidazolidine-4-carboxamide] |
| < 0.05 | COc1ccc(Oc2ccc(C(F)(F)F)cc2)cc1NC(=O)[C@@H]1CC(OC)C(=O)N1C (stereo partly drawn) [Compound 143, (2S)-4-Methoxy-N-(2-methoxy-5-(4-(trifluoromethyl)phenoxy)phenyl)-1-methyl-5-oxopyrrolidine-2-carboxamide] |
| 0.05 to 0.3 | COc1ccc(Oc2ccc(C(F)(F)F)cc2)cc1NC(=O)C1CNC(=O)N1 (stereo not drawn) [Compound 144, N-(2-Methoxy-5-(4-(trifluoromethyl)phenoxy)phenyl)-2-oxoimidazolidine-4-carboxamide] |
| 0.05 to 0.3 | COc1ccc(Oc2ccc(C(F)(F)F)cc2)cc1NC(=O)C1CCC(=O)N1CC1CC1 (stereo not drawn) [Compound 147, 1-(Cyclopropylmethyl)-N-(2-methoxy-5-(4-(trifluoromethyl)phenoxy)phenyl)-5-oxopyrrolidine-2-carboxamide] |
| < 0.05 | COc1ccc(Oc2ccc(C(F)F)cc2)cc1NC(=O)C1CNC(=O)N1C (stereo not drawn) [Compound 149, N-(5-(4-(Difluoromethyl)phenoxy)-2-methoxyphenyl)-3-methyl-2-oxoimidazoli-dine-4-carboxamide] |
| < 0.05 | CN1C(=O)CC[C@H]1C(=O)Nc1cc(O[C@H]2CC[C@H](C(F)(F)F)CC2)cc2c1OCC2 [Compound 150, (S)-1-Methyl-5-oxo-N-(5-(((trans)-4-(trifluoromethyl)cyclohexyl)oxy)-2,3-dihydrobenzofuran-7-yl)pyrrolidine-2-carboxamide] |

| IC50 [µM] | Structure (SMILES) |
| --- | --- |
| < 0.05 | CN1C(=O)CC[C@@H]1C(=O)Nc1cc(O[C@H]2CC[C@H](C(F)(F)F)CC2)cc2c1OCC2 [Compound 151, (R)-1-Methyl-5-oxo-N-(5-(((trans)-4-(trifluoromethyl)cyclohexyl)oxy)-2,3-dihydrobenzofuran-7-yl)pyrrolidine-2-carboxamide] |
| < 0.05 | COc1cc(F)c(Oc2ccc(C(F)(F)F)cn2)cc1NC(=O)C1COC(=O)N1C (stereo not drawn) [Compound 152, N-(4-Fluoro-2-methoxy-5-((5-(trifluoromethyl)pyridin-2-yl)oxy)phenyl)-3-methyl-2-oxooxazolidine-4-carboxamide] |
| < 0.05 | COc1cc(F)c(Oc2ccc(C(F)(F)F)cn2)cc1NC(=O)C1CNC(=O)N1C (stereo not drawn) [Compound 153, N-(4-Fluoro-2-methoxy-5-((5-(trifluoromethyl)pyridin-2-yl)oxy)phenyl)-3-methyl-2-oxoimidazolidine-4-carboxamide] |
| < 0.05 | COc1cc(F)c(Oc2ccc(C(F)(F)F)cn2)cc1NC(=O)[C@H]1COC(=O)N1C [Compound 154, (R)—N-(4-Fluoro-2-methoxy-5-((5-(trifluoromethyl)pyridin-2-yl)-oxy)phenyl)-3-methyl-2-oxooxazolidine-4-carboxamide] |
| 0.05 to 0.3 | COc1cc(F)c(Oc2ccc(C(F)(F)F)cn2)cc1NC(=O)[C@H]1CNC(=O)N1C [Compound 155, (R)—N-(4-Fluoro-2-methoxy-5-((5-(trifluoromethyl)pyridin-2-yl)oxy)phenyl)-3-methyl-2-oxoimidazolidine-4-carboxamide] |
| < 0.05 | CN1C(=O)NCC1C(=O)Nc1cc(Oc2ccc(C(F)(F)F)cn2)cc2c1OCC2 (stereo not drawn) [Compound 159, 3-Methyl-2-oxo-N-(5-((5-(trifluoromethyl)pyridin-2-yl)oxy)-2,3-dihydrobenzo-furan-7-yl)imidazolidine-4-carboxamide] |
| 0.05 to 0.3 | O=C1CC(C(=O)Nc2cc(Oc3ccc(C(F)(F)F)cn3)cc3c2OCC3)CCN1 (stereo not drawn) [Compound 160, 2-Oxo-N-(5-((5-(trifluoromethyl)pyridin-2-yl)oxy)-2,3-dihydrobenzofuran-7-yl)-piperidine-4-carboxamide] |
| 0.05 to 0.3 | O=C1CCC(C(=O)Nc2cc(Oc3ccc(C(F)(F)F)cn3)cc3c2OCC3)CN1 (stereo not drawn) [Compound 161, 6-Oxo-N-(5-((5-(trifluoromethyl)pyridin-2-yl)oxy)-2,3-dihydrobenzofuran-7-yl)piperidine-3-carboxamide] |
| < 0.05 | CN1C(=O)CC[C@@H]1C(=O)Nc1cc(Oc2ccc(C(F)(F)F)cn2)cc2c1OCC2 [Compound 162, (R)-1-Methyl-5-oxo-N-(5-((5-(trifluoromethyl)pyridin-2-yl)oxy)-2,3-dihydro-benzofuran-7-yl)pyrrolidine-2-carboxamide] |
| < 0.05 | CN1C(=O)CC[C@H]1C(=O)Nc1cc(Oc2ccc(C(F)(F)F)cn2)cc2c1OCC2 [Compound 163, (S)-1-Methyl-5-oxo-N-(5-((5-(trifluoromethyl)pyridin-2-yl)oxy)-2,3-dihydro-benzofuran-7-yl)pyrrolidine-2-carboxamide] |
| < 0.05 | O=C(Nc1cc(Oc2ccc(C(F)(F)F)cn2)cc2c1OCC2)C1CNC(=O)N1C1CC1 (stereo not drawn) [Compound 164, 3-Cyclopropyl-2-oxo-N-(5-((5-(trifluoromethyl)pyridin-2-yl)oxy)-2,3-dihydro-benzofuran-7-yl)imidazolidine-4-carboxamide] |
| < 0.05 | O=C(Nc1cc(Oc2ccc(C(F)(F)F)cn2)cc2c1OCC2)[C@@H]1CCC(=O)N1C1CC1 [Compound 165, (S)-1-Cyclopropyl-5-oxo-N-(5-((5-(trifluoromethyl)pyridin-2-yl)oxy)-2,3-dihydrobenzofuran-7-yl)pyrrolidine-2-carboxamide] |
| < 0.05 | O=C(Nc1cc(Oc2ccc(C(F)(F)F)cn2)cc2c1OCC2)[C@H]1CCC(=O)N1C1CC1 [Compound 166, (R)-1-Cyclopropyl-5-oxo-N-(5-((5-(trifluoromethyl)pyridin-2-yl)oxy)-2,3-dihydrobenzofuran-7-yl)pyrrolidine-2-carboxamide] |
| < 0.05 | CCN1C(=O)NCC1C(=O)Nc1cc(Oc2ccc(C(F)(F)F)cn2)cc2c1OCC2 (stereo not drawn) [Compound 167, 3-Ethyl-2-oxo-N-(5-((5-(trifluoromethyl)pyridin-2-yl)oxy)-2,3-dihydrobenzo-furan-7-yl)imidazolidine-4-carboxamide] |
| < 0.05 | CN1C(=O)NC[C@H]1C(=O)Nc1cc(Oc2ccc(C(F)(F)F)cn2)cc2c1OCC2 [Compound 168, (S)-3-Methyl-2-oxo-N-(5-((5-(trifluoromethyl)pyridin-2-yl)oxy)-2,3-dihydro-benzofuran-7-yl)imidazolidine-4-carboxamide] |
| 0.05 to 0.3 | CN1C(=O)NC[C@@H]1C(=O)Nc1cc(Oc2ccc(C(F)(F)F)cn2)cc2c1OCC2 [Compound 169, (R)-3-Methyl-2-oxo-N-(5-((5-(trifluoromethyl)pyridin-2-yl)oxy)-2,3-dihydro-benzofuran-7-yl)imidazolidine-4-carboxamide] |
